Assay results as given in ChEMBL document CHEMBL5104211, “Design and synthesis of bile acid derivatives and their activity against colon cancer” (RSC Med Chem, 2022).

Assays:
HCT-116 = assay: Anticancer activity against human HCT-116 cells assessed as inhibition of cell proliferation by MTT assay; format: functional, cell-based
RAW264.7 [1] = assay: Anti-inflammatory activity against mouse RAW264.7 cells assessed as inhibition of LPS-induced NO production at 10 micromol/L incubated for 24 hrs in presence of LPS by Griess reagent-based assay; format: functional; conditions: RAW264.7, 24 h, dose 10 µmol/L
RAW264.7 [2] = assay: Anti-inflammatory activity against mouse RAW264.7 cells assessed as inhibition of LPS-induced NO production at 25 micromol/L incubated for 24 hrs in presence of LPS by Griess reagent-based assay; format: functional; conditions: RAW264.7, 24 h, dose 25 µmol/L
Huh-7 = assay: Anticancer activity against human Huh-7 cells assessed as inhibition of cell proliferation by MTT assay; format: functional, cell-based
RAW264.7 [3] = assay: Anti-inflammatory activity against mouse RAW264.7 cells assessed as downregulation of LPS-induced TNF-alpha level at 10 to 25 micromol/L incubated for 24 hrs in presence of LPS by ELISA; format: functional, cell-based; conditions: dose 10-25 µmol/L, DDE = dose-dependent effect
LoVo = assay: Anticancer activity against human LoVo cells assessed as inhibition of cell proliferation by MTT assay; format: functional, cell-based
[4] = Cytotoxicity against human WI-38 cells assessed as inhibition of cell proliferation by MTT assay; format: toxicity, cell-based
MGC-803 = assay: Anticancer activity against human MGC-803 cells assessed as inhibition of cell proliferation by MTT assay; format: functional, cell-based
RAW264.7 [5] = assay: Anti-inflammatory activity against mouse RAW264.7 cells assessed as inhibition of LPS-induced NO production incubated for 24 hrs in presence of LPS by Griess reagent-based assay; format: functional, cell-based; conditions: RAW264.7, 24 h
RKO = assay: Anticancer activity against human RKO cells assessed as inhibition of cell proliferation by MTT assay; format: functional, cell-based
A549 = assay: Anticancer activity against human A549 cells assessed as inhibition of cell proliferation by MTT assay; format: functional, cell-based
HT-29 = assay: Anticancer activity against human HT-29 cells assessed as inhibition of cell proliferation by MTT assay; format: functional, cell-based
SW480 = assay: Anticancer activity against human SW480 cells assessed as inhibition of cell proliferation by MTT assay; format: functional, cell-based
SK-HEP1 = assay: Anticancer activity against human SK-HEP1 cells assessed as inhibition of cell proliferation by MTT assay; format: functional, cell-based

- IC50 (HCT-116): 64.5 µM
- IC50 (Huh-7): 116 µM
- IC50 (LoVo): 56.7 µM
- IC50 (MGC-803): 81.8 µM
- IC50 (RAW264.7 [5]): 16.3 µM
- IC50 (A549): 127 µM
- IC50 (HT-29): 40.9 µM
- IC50 (SW480): 69.4 µM
- IC50 (SK-HEP1): 156 µM
Structure (SMILES): C[C@H](CCC(=O)OCc1cc(O)cc(O)c1)[C@H]1CC[C@H]2[C@@H]3[C@H](O)C[C@@H]4C[C@H](O)CC[C@]4(C)[C@H]3CC[C@]12C
- inhibition at 10 µM (RAW264.7 [1]): 35.5%
- inhibition at 25 µM (RAW264.7 [2]): 73.2%
- Activity (RAW264.7 [3]): Dde
- IC50 [4]: > 200 µM
- IC50 (RKO): 76.9 µM
